Data taken from patent US20080021002A1, “VITAMIN D COMPOUNDS USED TO STABILIZE KIDNEY TRANSPLANTS” (priority 2000, published 2008).

Columns and labels:
Type in all cases: in vivo, rat
[1] = test system: Fisher to Lewis renal allograft; test: Fisher to Lewis renal allograft model of chronic allograft nephropathy (graft survival, serum creatinine, urinary protein, histology)
Description: Animals: Donor and recipients rats (greater than 250 gm) were obtained from Harlan Sprague Dawley, Indianapois, Ind. Recipient animals were placed on experimental diet containing 0.47% Ca 7 days prior to transplantation. Hullett et al., Transplantation 66:824-828, 1998. Recipients were divided into groups which received experimental diet alone or experimental diet containing 1,25-(OH)2D3 (250, 500, or 1000 ng/rat/day) or cyclosporine 1.5 or 5 mg/kg/day i.p. for 10 days. Animals were maintained on diet until the time or rejection or graft harvest at 24 weeks. All care and use of laboratory animals followed the NIH (NIH publication No. 86-23) guidelines. 1,25-(OH)2D3 was prepared, dissolved in ethanol and placed in the experimental diet as previously described.1,25-(OH)2D3 was the generous gift or Dr. Hector DeLuca, Department of Biochemistry, University of Wisconsin. Cyclosporine (Sandimmune i.v.; 1.5 or 5 mg/kg/day for 10 days,) was diluted in saline and given i.p. Transplantation: The Fisher to Lewis model of chronic allograft nephropathy has been previously described. Diamond et al., Transplantation 54:710-716, 1992. Briefly, donor kidneys obtained from male Fisher 344 rats were flushed with 10 ml cold University of Wisconsin preservation solution and stored at 4° C. while the recipient was prepared. […] Lewis male recipients were transplanted with either a Fisher 344 or Lewis kidney following left native nephrectomy. Briefly, the donor renal artery, vein and ureter were anastomosed to the recipient renal artery, vein and ureter. The right native kidney was removed 10 days post-transplant. Graft function was monitored by serum creatinine and urinary protein determinations. Urinary Protein: Proteinuria was assessed weekly. Animals were placed in metabolic cages for 6 hours and urine collected. Protein excretion was determined using a dye binding assay (quanTest red, Quantimetrix Corp., Redondo Beach, Calif.) according to manufacturer=s instructions with minor modifications. Briefly, 20 μl of the urine sample was diluted with 1×PBS in a two-fold series dilution in 96-well flat-bottom microtiter plates (Corning, N.Y.). […] Data was analyzed with Softmax Pro-software (Molecular Devices Corp.; Sunnyvale, Calif.). Graft survival was compared using the log rank test. Differences in mRNA and protein expression were compared by t-test.

Vitamin D receptor mRNA = test: Semi-quantitative RT-PCR of renal grafts, vitamin D receptor mRNA
Description: Semi-quantitative Reverse transcription polymerace chain reaction (RT-PCR): Following graft harvest a […] containing both cortex and medulla was snap frozen in liquid nitrogen. Semi-quantitative RT-PCR was performed as described. Little et al. Transplant Int. […] Briefly, samples were homogenized then total RNA extracted with RNAzol B (Tel Test, Inc., Friendswood, Tex.) and reversed transcribed to cDNA according to manufacturer=s instructions (Superscript, Gibco BRL). PCR was performed over the linear range of amplification for both the gene of interest, e.g. TGFβ-1, and the ribosomal protein S26 as a control housekeeping gene. PCR conditions were chosen such that both products were amplified with similar efficiency. The following cycle parameters were employed: denaturing, 94° C. for 60 seconds; annealing, 61° C. for 60 seconds; and extension, 72° C. for 60 seconds. The amount of product was quantified using a phosphoimager (Storm 80) following gel electrophoresis and Vista green detection.

Smad 6 mRNA = test: Semi-quantitative RT-PCR of renal grafts, Smad 6 mRNA
Source text: FIG. 3 is a bar graph disclosing that 1,25-(OH)2D3 treated increases Smad 6 mRNA expression. Semi-quantitative RT-PCR was used to determine Smad mRNA express. PCR products were quantified on a phosphoimager and the level of Smad expression compared to that of a ribosomal housekeeping gene, S26. Results are expressed as the ratio to S26.
(§1) Semi-quantitative Reverse transcription polymerace chain reaction (RT-PCR): Following graft harvest a […] containing both cortex and medulla was snap frozen in liquid nitrogen. Semi-quantitative RT-PCR was performed as described. Little et al. Transplant Int. 12:393-401, 1999. Briefly, samples were homogenized then total RNA extracted with RNAzol B (Tel Test, Inc., Friendswood, Tex.) and reversed transcribed to cDNA according to manufacturer=s instructions (Superscript, Gibco BRL). PCR was performed over the linear range of amplification for both the gene of interest, e.g. TGFβ-1, and the ribosomal protein S26 as a control housekeeping gene. PCR conditions were chosen such that both products were amplified with similar efficiency. The following cycle parameters were employed: denaturing, 94° C. for 60 seconds; annealing, 61° C. for 60 seconds; and extension, 72° C. for 60 seconds. The amount of product was quantified using a phosphoimager (Storm 80) following gel electrophoresis and Vista green detection.

Smad 7 mRNA = test: Semi-quantitative RT-PCR of renal grafts, Smad 7 mRNA; settings: vs controls
Description: as §1

bioactive TGFβ-1 = test: Immunohistochemistry of renal grafts for bioactive TGFβ-1
Description: FIGS. 6 (B) and (C) show immunohistochemistry for bioactive TGFβ-1 in two 1,25-(OH)2D3 treated grafts (1000 ng/rat/day). […] Magnification 200×.
Immunhistochemistry: Formalin fixed, paraffin embedded rat kidneys were sectioned to 4 microns. Sections were rewarmed on day of staining at 60° for 10 minutes, then deparaffinized in xylene for 30 minutes followed by rehydration. Sections were washed twice in distilled water and antigen retrieval performed. Briefly, section were soaked in 100 mM citrate buffer, pH=6.0 for 10 minutes at 90° C. and then heated to 115° C. or 20 minutes Sections were allowed to cool and then washed in PBS and blocked for 10 minutes with BIOCARE SUPER SNIPER9 (BS996L) followed by diluted primary TGFβ-1 antibody (1:150 (Promega Corp., Madison, Wis.; G1221) at 4° C. overnight. Slides were washed (3×5 minutes, PBS) and secondary antibody applied (1 hour at RT, MACHII BIOCARE goat anti-rabbit with polymer spacer; RHRP52OH, Walnut Creek, Calif.).
Slides were developed with Pierce=s Stable Peroxide buffer (cat #1855910) and Pierce=s Stable Metal enhanced DAB solution (cat #1856090).

[2] = allograft, 500 ng/rat/day, FIG. 2B

Vitamin D receptor mRNA expression (Vitamin D receptor mRNA; all treated groups vs untreated syngeneic control (data not shown)): elevated
Vitamin D receptor mRNA expression (Vitamin D receptor mRNA; vs untreated allogeneic control (data not shown)): not significantly different
SMILES: C=C1/C(=C\C=C2/CCC[C@]3(C)[C@@H]([C@H](C)CCCC(C)(C)O)CC[C@@H]23)C[C@@H](O)C[C@@H]1O [calcitriol, 1,25-dihydroxyvitamin D3]
Graft survival ([1]; 250 ng/day in diet, p=0.04): prolonged graft survival was not as readily demonstrated
Graft survival ([1]; 500 ng/rat/day in diet, vs allogeneic untreated controls, p=0.0009): significant prolongation of graft survival was sustained
Urinary protein ([1]; 500 ng/rat/day monotherapy (data not shown), vs untreated allogeneic controls or CSA 1.5 mg/kg/d): significantly lowered
Calcium deposits in graft ([1]; 1000 ng): Significant calcium deposits
Graft survival ([1]; 1000 ng/rat/day in diet, monotherapy, vs allogeneic untreated controls, p=0.0031): significantly prolonged
Urinary protein ([1]; 1000 ng/rat/day monotherapy, p=0.004, vs untreated allogeneic controls or CSA 1.5 mg/kg/d (10 days)): significantly lowered
Calcium deposition, histological examination ([1]; 250 and 500 ng/day groups): reduced calcium deposition
Cellular infiltration, histological examination (Banff) ([1]; 250 and 500 ng/day groups): mild to moderate cellular infiltration (Banff IA or IIA)
Serum calcium levels ([1]; 250 and 500 ng/day groups (data not shown)): remained elevated
Rise in serum creatinine at 2 weeks post-transplant ([1]; 500 or 250 ng/day): Neither the 500 or the 250 ng/day dose of 1,25-(OH)2D3 prevented the rise
Prolonged graft survival compared with low dose CSA (5 mg/kg/day for 10 days) ([1]; 1000 or 500 ng/rat/day): not statistically different
Early acute rejection episode (within 2 weeks post-transplant) ([1]; CSA: short-term low dose monotherapy, 1,25-(OH)2D3 in diet): diminished
Cellular infiltration (H&E) [1, 2]: significantly decreased
Interstitial fibrosis (H&E) [1, 2]: little or no interstitial fibrosis
Histological features of CAN (interstitial fibrosis, glomerulosclerosis, neointimal hyperplasia) ([1]; allografts, H&E, FIG. 2B): inhibited the development of these pathological features
Serum creatinine at 2 weeks post-transplant ([1]; p=0.035 versus untreated allogeneic control (FIG. 1B)): only a slight increase
Collagen deposition (trichrome stain) ([1]; treated allograft recipients, FIG. 2D-E): decreased collagen deposition
Smad 6 mRNA expression (Smad 6 mRNA; allogeneic grafts, vs untreated allogeneic grafts (1,25-(OH)2D3 p=0.02)): significantly increased
Smad 6 mRNA expression (Smad 6 mRNA; syngeneic grafts, vs untreated allogeneic grafts, p=0.001): significantly increased
Smad 7 mRNA levels (Smad 7 mRNA): no significant change
Glomerular staining for bioactive TGFβ-1 (bioactive TGFβ-1; 1000 ng/rat/day (FIG. 6 legend)): significantly decreased
Bioactive TGFβ-1 staining in tubular areas (bioactive TGFβ-1; allogeneic grafts (FIG. 6)): extensive staining
Bioactive TGFβ-1 expression in glomeruli (bioactive TGFβ-1; treated grafts in contrast to untreated control grafts (FIG. 6)): little bioactive TFGβ-1 expression
